Reference: article PMC10342533, “Novel Tetrazole Derivatives Targeting Tubulin Endowed with Antiproliferative Activity against Glioblastoma Cells” (International Journal of Molecular Sciences, 2023)
≈ marks a conversion by molar mass, not a printed value.

Experiments:
[1] = system: HeLa cells; experiment: Apoptotic cell death quantification, Annexin V-FITC/PI, HeLa; format: cell-based, human; conditions: 72 h, 100 nM
Procedure: To characterize the cell death mechanism induced by the representative compounds 10, 12, or 14 at 100 nM on HeLa, MCF7, and U87 MG cells, dual-channel flow cytometry studies were carried out for cells in the absence (negative control) or presence of compounds 72 h after treatment. Fluorescein isothiocyanate-labeled Annexin V (FITC-AnV) and propidium iodide (PI) were used for double staining. Regarding their response to AnV and PI, cells can be identified as viable (PI−, AnV−), early apoptotic (PI−, AnV+), late apoptotic or secondary necrotic (PI+, AnV+), or necrotic (PI+, AnV−). The translocation of the phosphatidylserine from the inner to the outer cell membrane causes the response of apoptotic cells to AnV, whereas only cells suffering some kind of membrane disintegration (late apoptotic or necrotic cells) allow PI permeation.
Following the manufacturer’s guidelines, an Annexin V-FITC/PI apoptosis detection kit (Immunostep, Salamanca, Spain) was used to quantify HeLa, MCF7, or U87 MG cells. Cells were seeded in 12-well plates (5·10^4 cells/mL, 1 mL/well) and incubated in complete DMEM medium (see above) at 37 °C and 5% CO2 atmosphere for 24 h. Then, the cells were treated with selected compounds (10, 12, or 14) at 100 nM, and untreated cells were used as negative controls. Then, 72 h after incubation, the cells were harvested, centrifugated, resuspended in the Annexin V binding buffer, and incubated in darkness with Annexin V-FITC/PI for 15 min at room temperature. The samples were analyzed by using a BD Accuri™ C6 Plus Flow Cytometer (BD Biosciences), and acquired data were analyzed via BD Accuri™ C6 Software (version 1.0.264.21).

[2] = Aqueous solubility, shake-flask method, phosphate buffer pH 7.4; format: physicochemical; conditions: thermodynamic from solid, phosphate buffer pH 7.4, shake-flask, mean ± SD of three experiments
Procedure: The aqueous solubility of tetrazole derivatives was determined by the shaking flask methodology in phosphate buffer at pH 7.4, microfiltration, and quantification of the saturated solutions via UV spectroscopy. […] The introduction of polar groups on the 3-indole position was favorable since the most soluble compounds were the oximes 16–19 (38–53 µg/mL), followed by the carbaldehyde series 12–15 (33–45 µg/mL), and the carbonitrile derivatives (25–40 µg/mL), whereas the unsubstituted indoles 8–11 were the least soluble series (19–35 µg/mL).
The aqueous solubility of the compounds was determined using the saturation shake-flask method. First, calibration lines at the maximum wavelength of absorbance were determined for each compound. Then, 5 mg of each compound was suspended in 500 µL of pH 7.4 buffer, and the resulting mixture was shaken for 72 h at room temperature and filtrated over a […] filter to remove the insoluble fraction. The concentration of the compound in the supernatant (saturated solution) was determined by measuring UV absorbance at the maximum wavelength of absorbance and interpolation in the calibration line. A Helios Alfa Spectrophotometer was used for the UV measurements. The aqueous solubility values are given as the average of three independent experiments.

[3] = system: HCT8 (colorectal carcinoma); experiment: Cell growth inhibition, MTT assay, HCT8; format: cell-based; conditions: Homo sapiens
Procedure: (§1) The ability of the synthesized compounds to inhibit the cell proliferation of human cancer cell lines was assayed by measuring cell viability through the use of the MTT method 72 h after treatment. For this purpose, representative cell lines of the most frequent kinds of cancer were selected, including the following: HeLa (cervix epithelioid carcinoma), MCF7 (breast adenocarcinoma), U87 MG (glioblastoma), T98G (temozolomide resistant glioblastoma), HepG2 (hepatocellular carcinoma), HCT8 (colorectal carcinoma), and HT-29 (colon adenocarcinoma).
(§2) The cell lines were obtained from ATTC (Manassas, VA, USA). […] The cells were periodically tested for Mycoplasma infection by using a MycoAlert kit (Lonza, Norwest, Australia), and only Mycoplasma-free cells were used in the experiments.
(§3) Then, every compound was added (10 µL/well) to a final concentration of 10 µM. Untreated cells were used as negative controls. The antiproliferative activity of compounds was measured 72 h after drug exposure through the MTT assay. […] For this purpose, compounds were used at different concentrations, ranging from 10^−10 to 10^−2 M. Measurements were performed in triplicate, and each experiment was repeated three times. The IC50 values were determined using Origin software (version 9.6, OriginLab, Washington, DC, USA).

[4] = system: U87 MG (glioblastoma); experiment: Cell growth inhibition, MTT assay, U87 MG; format: cell-based; conditions: Homo sapiens, U-87 MG
Procedure: as §1, §2, §3

[5] = system: U87 MG cells; experiment: Cell cycle analysis by flow cytometry (PI), U87 MG; format: cell-based, human; conditions: 100 nM
Procedure: To assess how tubulin polymerization inhibition and the effects on the microtubule network affect the cell cycle, flow cytometry experiments were performed on HeLa, MCF7, and U87 MG cells 24, 48, and 72 h after treatments with compounds 10, 12, and 14 at 100 nM using propidium iodide (PI) for DNA staining and untreated cells as the negative control.
HeLa, MCF7, or U87 MG cells were seeded in 6-well plates (8·10^4 cells/mL, 2 mL/well) and incubated in complete DMEM Medium (see above) at 37 °C and 5% CO2 atmosphere for 24 h. Then, the cells were treated with selected compounds (10, 12, or 14) at 100 nM, and untreated cells were used as negative controls. Cells were collected 24, 48, or 72 h following treatment and fixed overnight in ethanol/PBS (7:3) at 4 °C. After two washes with PBS, cells were suspended in PBS and incubated in darkness overnight with 0.2 mg/mL RNase A (Sigma-Aldrich, St. Louis, MO, USA), 50 µg/mL propidium iodide (Sigma-Aldrich, St. Louis, MO, USA), and Triton 10x at room temperature. A BD Accuri™ C6 Plus Flow Cytometer (BD Biosciences, Franklin Lakes, NJ, USA) cytometer was used to analyze the samples, and BD Accuri™ C6 Software (version 1.0.264.21) was used for data analysis.

[6] = system: HepG2 (hepatocellular carcinoma); experiment: Cell growth inhibition, MTT assay, HepG2; format: cell-based; conditions: Homo sapiens
Procedure: as §1, §2, §3

[7] = HCT-8, 72 h after drug exposure

Structure (SMILES) | apoptosis (early and late apoptotic death) [1] [%] | solubility at 72 h [2] [µg/mL] | IC50 [3, 7] [nM] | IC50 ([4]; 72 h after drug exposure) [nM] | IC50 ([4]; mean ± SD, Table S1) [nM] | G0/G1 population ([5]; 24 h) [% Cells] | G2/M population ([5]; 24 h) [% Cells] | S population ([5]; 24 h) [% Cells] | SubG0/G1 population ([5]; 24 h) [% Cells] | G0/G1 population ([5]; 48 h) [% Cells] | G2/M population ([5]; 48 h) [% Cells] | S population ([5]; 48 h) [% Cells] | SubG0/G1 population ([5]; 48 h) [% Cells] | G0/G1 population ([5]; 72 h) [% Cells] | G2/M population ([5]; 72 h) [% Cells] | S population ([5]; 72 h) [% Cells] | IC50 ([6]; 72 h after drug exposure) [nM] | IC50 ([6]; mean ± SD, Table S1) [nM] | IC50 ([3]; HCT-8, mean ± SD, Table S1) [nM]
CSc1cc(-c2nnnn2-c2ccc3c(ccn3C)c2)cc(Cl)n1 [Compound 10, 5-(5-(2-chloro-6-(methylsulfanyl)pyridin-4-yl)-1H-tetrazol-1-yl)-1-methyl-1H-indole] | ~73 | 26.1 ± 0.2 (≈ 73.1 µM) | 40 | 22 | 22.2 ± 0.1 | 21.1 | 47.8 | 8.3 | 23.5 | 11.0 | 31.6 | 9.0 | 49.2 | 10.5 | 17.0 | 2.9 | 37 | 37.1 ± 0.2 | –
Cn1cc(C=O)c2cc(-n3nnnc3-c3cc(Cl)nc(Cl)c3)ccc21 [Compound 12, 5-(5-(2,6-dichloropyridin-4-yl)-1H-tetrazol-1-yl)-1-methyl-1H-indole-3-carbaldehyde] | ~73 | 33.1 ± 0.3 (≈ 88.7 µM) | 40 | 17 | 17.1 ± 0.1 | 27.3 | 37.8 | 9.6 | 26.1 | 11.9 | 27.4 | 10.3 | 51.1 | 12.2 | 10.0 | 7.8 | 36 | 36.4 ± 0.2 | 40.1 ± 0.3
CSc1cc(-c2nnnn2-c2ccc3c(c2)c(C=O)cn3C)cc(Cl)n1 [Compound 14, 5-(5-(2-chloro-6-(methylsulfanyl)pyridin-4-yl)-1H-tetrazol-1-yl)-1-methyl-1H-indole-3-carbaldehyde] | 80 | 36.9 ± 0.3 (≈ 95.9 µM) | 29 | 12 | – | 23.7 | 41.3 | 8.5 | 27.2 | 12.5 | 32.1 | 10.6 | 45.4 | 11.1 | 9.6 | 6.9 | 31 | 31.1 ± 0.3 | 29.4 ± 0.2
